Assay results taken from patent US20030207941A1, “Method of treating vascular endothelial growth factor mediated vascular disorders” (priority 2002, published 2003).

What was measured:
[1] = tested on: BRMEC (Bovine Retinal Microvascular Endothelial Cell); assay: VEGF-induced BRMEC proliferation, modified MTT assay; format: cell-based
Procedure: VEGF-induced BRMEC proliferation was measured using a modified MTT assay, BRMEC were plated at 3×10^3 onto a fibronectin/hyaluronic acid matrix in 96-well plates (Coming). Growth medium was added for two days, followed by serum free medium (SFM) overnight, then by test medium containing 0 or 25 ng/ml VEGF in 100 μl of SFM. After 24 hours at 37° C./5%CO2, 25 μl of MTT (3-(4,5-dimethylthiazol-2-yl)-2,5-diphenyl tetrazolium bromide) was added to each well and incubated for 4 hours. 100 μl of lysis buffer (20%SDS in 50:50 DMF:H2O+2.0% acetic acid and 0.05%HCl) was then added to each well, and the plates were incubated overnight at 37° C. and read (SPECTRAmax 190, Molecular Devices; Sunnyvale, Calif.) at 570 nm. For experiments utilizing AL06295, 25 ng/ml VEGF was combined with the compound at 0.1, 0.3, 1.0 or 3 μM.

[2] = tested on: BRMEC (Bovine Retinal Microvascular Endothelial Cell); assay: VEGF-induced BRMEC capillary tube formation; format: cell-based
Procedure: A mixture of 8 vol of Vitrogen 100 (Cohesion; Palo Alto, Calif.), 1 vol. of 0.2N NaOH, and 1 vol. of 10× RPMI-1640 medium containing 5 μg/ml fibronectin and 5 μg/ml laminin was prepared and 400 μl was added to each well of a 24-well plate. After incubating for 3 hrs at 37° C. to solidify the gel, 10^4 BRMEC were added to each well and incubated in growth medium for 3 days. Then the medium was carefully aspirated and 200 μl of the gel solution was layered on top of the cells and incubated at 37° C. for 1 hr. Following addition of growth medium for 24 hrs, 2 ml of test medium containing serum-free (SF) medium plus VEGF or SF medium plus VEGF and AL06295A were added to each well. The gels were assessed 24 hrs later.
For quantitative analysis, six fields per treatment group were chosen from areas containing tubes; seven wells were used for each treatment. The lengths of the tubes were measured in digitized images, and the data are expressed in FIG. 2 as the total length per field of view in μm.

COX-1 = COX-1 (Homo sapiens, UniProt P23219); conditions: known; cited from earlier work
Sequence of COX-1 (P23219 24-599): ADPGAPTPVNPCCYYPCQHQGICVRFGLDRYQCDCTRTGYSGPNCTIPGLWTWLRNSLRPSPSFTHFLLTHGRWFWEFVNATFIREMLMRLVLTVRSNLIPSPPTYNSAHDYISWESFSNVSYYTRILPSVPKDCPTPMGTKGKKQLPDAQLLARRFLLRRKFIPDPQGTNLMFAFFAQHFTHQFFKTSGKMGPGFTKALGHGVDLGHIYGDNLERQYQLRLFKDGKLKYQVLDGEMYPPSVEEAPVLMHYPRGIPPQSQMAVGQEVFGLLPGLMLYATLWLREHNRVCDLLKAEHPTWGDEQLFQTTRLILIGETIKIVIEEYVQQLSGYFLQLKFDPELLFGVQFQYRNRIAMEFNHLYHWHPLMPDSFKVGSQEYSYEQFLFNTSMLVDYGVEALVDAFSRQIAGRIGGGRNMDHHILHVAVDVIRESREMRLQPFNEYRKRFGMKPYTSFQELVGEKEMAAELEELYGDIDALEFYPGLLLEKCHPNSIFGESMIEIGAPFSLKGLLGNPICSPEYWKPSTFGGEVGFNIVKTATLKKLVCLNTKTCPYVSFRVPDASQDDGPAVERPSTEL

COX-2 = target: T1, COX-2 (Homo sapiens, UniProt P35354); conditions: known; cited from earlier work
T1 sequence (P35354 18-604): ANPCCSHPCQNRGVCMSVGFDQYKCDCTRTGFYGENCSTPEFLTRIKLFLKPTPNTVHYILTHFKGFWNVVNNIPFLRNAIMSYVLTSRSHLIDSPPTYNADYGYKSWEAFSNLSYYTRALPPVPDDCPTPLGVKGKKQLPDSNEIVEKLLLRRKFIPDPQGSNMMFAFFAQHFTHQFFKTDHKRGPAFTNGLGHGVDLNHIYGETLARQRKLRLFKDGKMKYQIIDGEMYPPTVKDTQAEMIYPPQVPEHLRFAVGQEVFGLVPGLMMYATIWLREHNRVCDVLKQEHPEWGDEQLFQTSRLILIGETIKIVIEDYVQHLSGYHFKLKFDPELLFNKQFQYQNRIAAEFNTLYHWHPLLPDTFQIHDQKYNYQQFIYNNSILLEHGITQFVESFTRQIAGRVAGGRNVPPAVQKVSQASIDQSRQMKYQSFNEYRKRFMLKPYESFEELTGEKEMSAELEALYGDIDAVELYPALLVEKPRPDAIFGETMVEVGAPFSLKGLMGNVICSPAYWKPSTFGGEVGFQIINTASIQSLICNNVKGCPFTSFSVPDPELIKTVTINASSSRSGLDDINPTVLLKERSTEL

choroidal NV = choroidal NV in a mouse model, topical administration; format: in vivo; conditions: previous findings
[3] = dose-response fashion, bovine retinal microvascular endothelial cell assay

Row | Molecule | VEGF induced BRMEC proliferation ([1]; 1 and 3 μM doses, 25 ng/ml VEGF, 24 hours, FIG. 1) | VEGF-induced cell proliferation [1, 3] | VEGF induced capillary tube formation in BRMECs (total tube length per field of view) ([2]; all doses, SF medium plus VEGF, assessed 24 hrs later, FIG. 2) | VEGF-induced capillary tube formation [2, 3] | activity of COX-1 enzyme (COX-1) | activity of COX-2 enzyme (COX-2) | choroidal NV (choroidal NV)
1 | 2-amino-3-benzoylbenzene acetic acid [amfenac] | significantly reduce | inhibit | significantly and potently inhibit | inhibit | potently inhibit | potently inhibit | 
2 | NC(=O)Cc1cccc(C(=O)c2ccccc2)c1N [nepafenac] |  |  |  |  |  |  | inhibited
